From article PMC10056899, “Neuroprotective and Antiherpetic Properties of Polyphenolic Compounds from Maackia amurensis Heartwood” (Molecules, 2023)
Several values for one entry are separate records, joined by “and”; a condition that tells them apart may be missing. Identical values can stand only once. Like-named read-outs stand apart in the source and are kept apart here.

What was measured:
[1] = Ferric reducing antioxidant power (FRAP) assay; details: 4 min, pH 3.6
Description: The FRAP assay was carried out as described in [41]. We prepared FRAP reagent by mixing 2.5 mL of TPTZ (2,4,6-tris(2-pyridyl)-s-triazine) solution (10 mM) in 40 mM HCl and […] of FeCl3 solution (20 mM) in acetate buffer solution (300 mM, pH 3.6). Then, we added stilbenes 1–6 to 3 mL of FRAP reagent at concentrations from 1 to 34 µM. The mixture was kept in the dark at room temperature for 4 min. Then, we measured the absorbance at 595 nm using a Shimadzu UV 1240 spectrophotometer. Equation (2) was used to calculate the FRAP values of stilbenes 1–6:(2) FRAP=CFe/Cx, where: • CFe is the concentration of Fe^2+ (µM) formed in the reaction; • Cx is the concentration of polyphenolic compounds in the reacting mixture.
The concentration of Fe^2+ (µM) formed in the reaction was determined using the calibration curve obtained for different concentrations of FeSO4·7H2O.

HSV-1 = experiment: Anti-HSV-1 activity, cytopathic effect (CPE) inhibition assay in Vero cells; assay type: cell-based, HSV-1 strain L2; details: for IC50: read-out: IC50 (CPE assay); for SI = CC50/IC50: Vero cells, HSV-1
Description: (§1) The HSV-1 strain L2 and Vero cell culture (kidney epithelial cells of the African green monkey Chlorocebus sp.) were obtained from the N.F. Gamaleya Federal Research Centre for Epidemiology and Microbiology (Moscow, Russia). HSV-1 was grown in Vero cells, using Dulbecco′s Modified Eagle′s Medium (DMEM, Biolot, St. Petersburg, Russia) supplemented with 10% fetal bovine serum (FBS, Biolot, St. Petersburg, Russia) and 100 U/mL of gentamycin (Dalkhimpharm, Khabarovsk, Russia), at 37 °C in a CO2 incubator. In the maintenance medium, the FBS concentration was decreased to 1%.
(§2) The tested compounds were dissolved in DMSO (Sigma, St. Louis, MO, USA) at a concentration 10 mg/mL and stored at −20 °C. For cytotoxicity and anti-HSV-1 activity determination, the stock solutions were diluted with DMEM so that the final concentration of DMSO was 0.5%.
The anti-HSV-1 activity of stilbenes was evaluated using cytopathic effect (CPE) inhibition assay in Vero cells. We infected the monolayer of cells grown in 96-well plates (1 × 10^4 cells/well) with 100 µL/well of virus suspension (100 TCD50/mL) and we simultaneously treated it with stilbenes 1–6 (100 µL/well) at various concentrations (from 1 to 400 μg/mL) for one hour at 37 ◦C. After virus absorption, we removed the mixture of virus and stilbenes, washed the cells, and added the maintenance medium with 1% FBS. […] We used MTT assay to evaluate the antiviral activity of stilbenes. The viral inhibition rate (IR, %) was calculated according to Equation (3):(3) IR, %=Atv−Acv/Acd−Acv×100, where: • Atv is the absorbance of cells infected with virus and treated with a polyphenolic compound; • Acv is the absorbance of the untreated virus-infected cells; • Acd is the absorbance of control (untreated and non-infected) cells.
The selectivity index (SI) was calculated as the ratio of CC50 to IC50. Experiments were repeated three times.

[2] = DPPH radical scavenging assay; details: 20 min; for IC50: read-out: DPPH Scavenging Effect IC50
Description: The DPPH (2,2-diphenyl-1-picrylhydrazyl) scavenging effect of polyphenolic compounds 1-6 from M. amurensis heartwood was evaluated as described previously in [40]. Stilbenes were added to DPPH solution in MeOH (10^−4 M) at a concentration range from 1 to 34 µM. The mixture was kept in the dark at room temperature for 20 min. Then, we measured the absorbance at 517 nm using a Shimadzu UV 1240 spectrophotometer (Shimadzu, Kyoto, Japan). The DPPH radical-scavenging effect (%) of the stilbenes was calculated using Equation (1): (1) DPPH scavenging effect, %=A0−Ax/A0×100, where: • A0 is the absorbance of DPPH solution without polyphenolic compounds (blank sample); • Ax is the absorbance of DPPH solution in the presence of different concentrations of polyphenolic compounds.
Quercetin and ascorbic acid were used as reference compounds. All experiments were performed in triplicate. The half maximal inhibitory concentration (IC50) for polyphenolic compounds was calculated by plotting the DPPH scavenging effect (%) against the concentrations of polyphenolic compounds. IC50 values are given as the mean ± SEM.

[3] = Cytotoxicity against Vero cells (MTT assay); assay type: cell-based; details: African green monkey (Chlorocebus sp.)
Description: as §1, §2
The cytotoxicity evaluation of the studied compounds was performed using the MTT assay, as described previously. In brief, confluent Vero cells in 96-well microplates (1 × 10^4 cells/well) were incubated with tested compounds at various concentrations (1–500 μg/mL) at 37 °C for 48 h (5% CO2). Untreated cells were used as controls. Then, MTT solution (methylthiazolyltetrazolium bromide, Sigma, St. Louis, MO, USA) was added to cells at a concentration of 5 mg/mL and the cells were incubated at 37 °C for 2 h. After dissolution of formazan crystals, optical densities were read at 540 nm (Labsystems Multiskan RC, Vantaa, Finland). […] [42]. Experiments were performed in triplicate and repeated three times.

[4] = test system: PQ-treated Neuro-2a cells; experiment: Intracellular ROS level in PQ-treated cells (H2DCF-DA); assay type: cell-based, murine; details: 10 μM, PQ 1 mM
Description: After 24 h of adhesion, Neuro-2a cells (1 × 10^4 cells/well) were incubated with stilbenes (0.01–10 µM) for 1 h. After that, we added PQ (1 mM) to each well and incubated the cells for 3 h. To study ROS formation, we added 20 µL of 2,7-dichlorodihydrofluorescein diacetate solution ([…], H2DCF-DA, Molecular Probes, Eugene, OR, USA) to each well, so that the concentration was 10 µM, and kept the microplate in a CO2–incubator for additional 30 min at 37 °C.

Compound: COc1ccc([C@@H]2COc3cc(O)ccc3[C@H]2c2c(O)cc(O)cc2/C=C/c2ccc(O)c(O)c2)c(O)c1 [Compound 1]
- FRAP CFe2+(µM)/Cpolyphenolic compound (µM) [1]: 12.36 ± 1.38 CFe2+(µM)/Cpolyphenolic compound (µM)
- FRAP CFe2+(µM)/Cpolyphenolic compound (μkg/mL) [1]: 24.04 ± 2.68 CFe2+(µM)/Cpolyphenolic compound (μkg/mL)
- IC50 (HSV-1; Human alphaherpesvirus 1, Vero): 14 µg/mL and 27.2 µM
- SI = CC50/IC50 (HSV-1): 11.6 ± 1.3
- DPPH Scavenging Effect IC50 [2]: 2.25 ± 0.25 µg
- IC50 [2]: 4.3 ± 0.5 µM
- CC50 at 48 h [3]: 162 µg/mL and 316 µM
- Reduction of intracellular ROS level in PQ-treated cells [4]: 17%

Compound: Oc1ccc(/C=C/c2cc(O)cc3c2[C@H](c2cc(O)cc(O)c2)[C@@H](c2ccc(O)c(O)c2)O3)cc1 [Compound 4, scirpusin A]
- FRAP CFe2+(µM)/Cpolyphenolic compound (µM) [1]: 11.44 ± 1.41 CFe2+(µM)/Cpolyphenolic compound (µM)
- FRAP CFe2+(µM)/Cpolyphenolic compound (μkg/mL) [1]: 24.34 ± 3.00 CFe2+(µM)/Cpolyphenolic compound (μkg/mL)
- IC50 (HSV-1; Human alphaherpesvirus 1, added to Vero cells simultaneously with the virus, 100 TCD50/mL): 13.8 µg/mL and 29.4 µM
- SI = CC50/IC50 (HSV-1): 14.4 ± 1.7
- DPPH Scavenging Effect IC50 [2]: 1.50 ± 0.19 µg
- IC50 [2]: 3.2 ± 0.4 µM
- CC50 at 48 h [3]: 199 µg/mL and 424 µM
- Reduction of intracellular ROS level in PQ-treated cells [4]: 7%
